Source: patent publication US20230168243A1, “METHODS FOR DIAGNOSING IMMEDIATE HYPERSENSITIVY REACTION” (Universiteit Antwerpen, priority 2020, published 2023)

What was measured:
[1] = system: cultured human donor mast cells (dMCs); test: Direct mast cell activation: CD63 upregulation on donor mast cells not passively sensitized with serum (dMCIgE-); type: cell-based; conditions: for CD63 upregulation / activation of unsensitized (unloaded) mast cells: MCs not passively sensitized with patients' serum
[2] = system: cultured human donor mast cells (dMCs); test: Mast cell activation test (MAT): CD63 upregulation on donor mast cells passively sensitized with patients' sera (dMCIgE+), flow cytometry; type: cell-based; conditions: for CD63 upregulated after activation / CD63 upregulation: dMCIgE+ sensitized with patients' sera, mean; for CD63 upregulated after activation: first donor, 20 min; for CD63 upregulation: second donor; for up-regulation of CD63 (% of the cells): donor MCs passively sensitized with serum containing chlorhexidine-reactive IgE antibodies, FIG. 7
Description: Human MCs were cultured as described in Cop N, et al. Influence of IL-6, IL-33, and TNF-alpha on human mast cell activation: Lessons from single cell analysis by flow cytometry. Cytometry B Clin Cytom 2018; 94:405-11. Briefly, peripheral blood mononuclear cells were isolated from 50 mL peripheral blood from healthy volunteers. CD34^+ progenitor cells were enriched using the EasySep Human CD34 Selection Kit (Stemcell Technologies, Vancouver, Canada) according to the manufacturer's instructions. Isolated CD34^+ progenitor cells were cultured in a serum-free methylcellulose-based medium (MethoCult SF H4236, Stemcell Technologies) supplemented with penicillin (100 units/mL, Life Technologies, Waltham, USA), streptomycin (100 μg/mL, Life Technologies), low-density lipoprotein (LDL, 10 μg/mL, Stemcell Technologies), 2-mercaptoethanol (55 μmol/L, Life Technologies), stem cell factor (SCF, 100 ng/mL, Miltenyi Biotec, Bergisch Gladbach, Germany), interleukin-3 (IL-3, 100 ng/mL, PeproTech, Rocky Hill, USA) and interleukin-6 (IL-6, 50 ng/mL, Miltenyi Biotec) during 4-5 weeks. Participants gave a written informed consent as approved by the Ethical Committee of the University Hospital of Antwerp (Belgium B300201316408).
Degranulation of dMC was measured by overnight passively sensitizing the cells with serum at 37° C. in a humidified CO2-incubator. Next, dMC^IgE+ were centrifuged (500 g, 5 minutes, 20° C.) and the cell pellet was resolved in pre-warmed Tyrode's buffer (Sigma-Aldrich, St. Louis, USA) at a concentration of 0.5×10^6 cells/mL. Thereafter, 100 μL of the cells were pre-incubated with IL-33 (100 ng/mL) (Peprotech) for 20 minutes on 37° C. Subsequently, these pre-incubated dMC^IgE+ were stimulated with 100 μL Tyrode's buffer as a negative control or 100 μL of CHX (Sigma-Aldrich) during 20 minutes at 37° C. The final concentrations of CHX were: 0.05, 5, 500, 50 000 ng/mL, i.e. 0.0028, 0.28, 28; 2800 nM). Reactions were stopped by placing the cells on ice and removing the supernatants (500 g, 5 minutes, 4° C.). Cells were stained with monoclonal anti-human CD117-APC (clone 104D2, BD Biosciences, Erembodegem, Belgium), CD203c-PeCy7 (clone NP4D6, eBioscience) and CD63-FITC (clone H5C6, BD Bioscience) for 20 minutes at 4° C. Finally, cells were washed and resolved in PBS with 0.1% sodium azide and measured. Degranulation of dMCs was measured as surface upregulation of the lysosomal degranulation marker CD63. The mast cell activation test is repeated on dMCs of two different volunteers.
Flow cytometric analysis was performed on a FACSCanto II flow cytometer (BD Immunocytometry Systems, San Jose, Calif.) equipped with three lasers (405 nm, 488 nm and 633 nm). Correct compensation settings for antibodies conjugated with fluorochromes were performed using BD CompBeads (BD Biosciences). Flow cytometric data were analyzed using Kaluza Analysis 1.5 software (Beckman Coulter, USA). Unstained samples were used to set a marker between positive and negative cells according to the 99th percentile. A fluorescence minus one (FMO) was used to set a marker between positive and negative cells. Mast cells were gated out as CD117 and CD203c positive cells. Results are expressed as mean and range.
Human MCs were obtained as described in Example 1. Sera from patients with perioperative anaphylaxis were selected based on the presence of sIgE against rocuronium >0.13 kUa/L and a positive skin test rocuronium. MC activation was determined as described in Example 1 and cells were stimulated during 3 and 20 minutes, preferably 20 minutes, with final concentrations of rocuronium of 1.64, 16.4, 164 and 1640 μM.
Human MCs were obtained as described in Example 1.

SMILES | CD63 upregulation / activation of unsensitized (unloaded) mast cells [1] | CD63 upregulation / activation of unsensitized (unloaded) mast cells ([1]; listed as CHX) | CD63 upregulation (degranulation) ([2]; dMC sensitized with sera of patients with isolated sIgE CHX (negative skin test and BAT)) | CD63 upregulated after activation ([2]; CHX 0.05 ng/mL (0.0028 nM), printed range 1-22) [%] | CD63 upregulated after activation ([2]; CHX 5 ng/mL (0.28 nM), printed range 1-76) [%] | CD63 upregulated after activation ([2]; CHX 500 ng/mL (28 nM), printed range 6-86) [%] | CD63 upregulated after activation ([2]; CHX 50000 ng/mL (2800 nM), printed range 0-88) [%] | CD63 upregulation ([2]; CHX 0.05 ng/mL (0.0028 nM), printed range 0-21) [%] | CD63 upregulation ([2]; CHX 5 ng/mL (0.28 nM), printed range 2-44) [%] | CD63 upregulation ([2]; CHX 500 ng/mL (28 nM), printed range 3-64) [%] | CD63 upregulation ([2]; CHX 50000 ng/mL (2800 nM), printed range 0-73) [%] | up-regulation of CD63 (% of the cells) [2] [%] | CD63 upregulation after stimulation ([1]; dMCIgE- not passively sensitized, rocuronium end concentration 164 μM, representative plot FIG. 6) [%] | CD63 upregulation after stimulation ([2]; dMCIgE+ sensitized with serum of a rocuronium-allergic patient, rocuronium end concentration 164 μM, representative plot FIG. 6) [%]
[H]/N=C(\N/C(=N/[H])NCCCCCCNC(=N)NC(=N)Nc1ccc(Cl)cc1)Nc1ccc(Cl)cc1 [chlorhexidine, 1:6-di(4-chlorophenyldiguanido)-hexane] | did not upregulate CD63 | could not elicit activation/degranulation | no upregulation of CD63 | 1 | 10 | 57 | 31 | 2 | 7 | 30 | 45 | 18 | – | –
CCCCCCCCN=c1ccn(CCCCCCCCCCn2ccc(=NCCCCCCCC)cc2)cc1 [octenidine] | did not upregulate CD63 | – | – | – | – | – | – | – | – | – | – | 18 | – | –
C=CC[N+]1([C@H]2C[C@H]3[C@@H]4CC[C@H]5C[C@H](O)[C@@H](N6CCOCC6)C[C@]5(C)[C@H]4CC[C@]3(C)[C@H]2OC(C)=O)CCCC1 [rocuronium] | – | – | – | – | – | – | – | – | – | – | – | – | 0 | 24
